Data on 1 substance can be found in patent US8404733B2, “Laser enhanced amino acid blend and use of same to regenerate active myocardial tissue” (priority 2010, dated 2013).

The test deals with murine macrophages. Nature of the test: TNF-alpha production (ELISA) by Echinacea activated murine macrophages. It is filed as cell-based. As to conditions: 24 hours; amino acid samples 20 mg/ml together with Echinacea; LPS 1 ng/ml; Negative Control 215 +/- 13.7. The source says: The rationale for the use of this process of laser enhancement is the result of an in vitro study using a similar short wavelength laser treatment. In this study, murine macrophages that were activated with Echinacea to simulate an irritated immune system were then fed the above formula of amino acids in the untreated and laser treated conditions. […] The specific details of the in vitro study are as follows. 20 grams of the amino acid blend as detailed above was used for each of the control and treated amino acid samples. The Untreated Sample was not treated. The Treated Sample was exposed to laser radiation from a 458 nm pumped argon gas laser with a primary power of 16.5 mW adjusted through the optics to a power level of 5.1 mW The duration of treatment of the sample was 30 seconds. The following bioassays were performed. A standardized Echinacea sample alone or with 20 mg/ml of the Untreated or Treated Sample amino acids were incubated in tissue culture media of triplicate wells of murine macrophages. […] The results were as follows and are expressed as the mean TNF-alpha production plus or minus the statistical standard deviation (SD): Using a Student's 2-tailed t-test, the Echinacea Stimulated Sample was compared to the results of Echinacea plus the Untreated Amino Acid Sample or the Treated Amino Acid Sample.
(In general: In an ELISA, binding on a coated surface is turned into a signal by an enzyme label.)

As for lipopolysaccharide [LPS], the “TNF-alpha +/- SD (mean TNF-alpha production)” value is listed as 2863 +/− 185.7.
